Source: the NIST ThermoML archive (doi:10.1021/je201152j)
Numbers after ± are expanded uncertainties.

Legend:
[1] = 298.15 K, 101.33 kPa, Liquid; for viscosity: Capillary tube (Ostwald / Ubbelohde) method; for speed of sound: Sing-around technique in a fixed-path interferometer; for mass density: Vibrating tube method
[2] = refractive index (Na D-line) (dimensionless); conditions: 298.15 K; 101.33 kPa; Liquid; Standard Abbe refractometry

Row | viscosity [1] [mPa·s] | speed of sound [1] [m/s] | mass density [1] [kg/m3] | refractive index [2] | Compound
1 | 1.681 ± 0.013 | 1545.2 ± 1.9 | 1028.3 ± 0.5 | 1.468 ± 0.0004 | CN1CCCC1=O [N-methylpyrrolidone]
2 | 1.091 ± 0.008 | 1144.2 ± 1.6 | 785.21 ± 0.42 | 1.3595 ± 0.0004 | CCO [ethanol]
